Test results: ChEMBL document CHEMBL5126617, “Application of Degradation of Cyclic-AMP Response Element Binding Protein for the Potential Treatment of Cancer” (ACS Med Chem Lett, 2022)

Experiments:
[1] = biological target: Protein cereblon/Histone acetyltransferase p300 (Homo sapiens) (UniProt Q09472+Q96SW2); assay: Protac activity at E3 ubiquitin ligase/P300 in human LNcaP cells assessed as degradation of P300 at 10 nM by immunoblotting analysis relative to control; type: cell-based
LNCaP = assay: Antiproliferative activity against human LNCaP cells assessed as reduction in cell viability by CellTitre-Glo assay; type: functional, cell-based

Protein cereblon/Histone acetyltransferase p300 (Homo sapiens), sequence (Q09472 2-2414 limits assumed): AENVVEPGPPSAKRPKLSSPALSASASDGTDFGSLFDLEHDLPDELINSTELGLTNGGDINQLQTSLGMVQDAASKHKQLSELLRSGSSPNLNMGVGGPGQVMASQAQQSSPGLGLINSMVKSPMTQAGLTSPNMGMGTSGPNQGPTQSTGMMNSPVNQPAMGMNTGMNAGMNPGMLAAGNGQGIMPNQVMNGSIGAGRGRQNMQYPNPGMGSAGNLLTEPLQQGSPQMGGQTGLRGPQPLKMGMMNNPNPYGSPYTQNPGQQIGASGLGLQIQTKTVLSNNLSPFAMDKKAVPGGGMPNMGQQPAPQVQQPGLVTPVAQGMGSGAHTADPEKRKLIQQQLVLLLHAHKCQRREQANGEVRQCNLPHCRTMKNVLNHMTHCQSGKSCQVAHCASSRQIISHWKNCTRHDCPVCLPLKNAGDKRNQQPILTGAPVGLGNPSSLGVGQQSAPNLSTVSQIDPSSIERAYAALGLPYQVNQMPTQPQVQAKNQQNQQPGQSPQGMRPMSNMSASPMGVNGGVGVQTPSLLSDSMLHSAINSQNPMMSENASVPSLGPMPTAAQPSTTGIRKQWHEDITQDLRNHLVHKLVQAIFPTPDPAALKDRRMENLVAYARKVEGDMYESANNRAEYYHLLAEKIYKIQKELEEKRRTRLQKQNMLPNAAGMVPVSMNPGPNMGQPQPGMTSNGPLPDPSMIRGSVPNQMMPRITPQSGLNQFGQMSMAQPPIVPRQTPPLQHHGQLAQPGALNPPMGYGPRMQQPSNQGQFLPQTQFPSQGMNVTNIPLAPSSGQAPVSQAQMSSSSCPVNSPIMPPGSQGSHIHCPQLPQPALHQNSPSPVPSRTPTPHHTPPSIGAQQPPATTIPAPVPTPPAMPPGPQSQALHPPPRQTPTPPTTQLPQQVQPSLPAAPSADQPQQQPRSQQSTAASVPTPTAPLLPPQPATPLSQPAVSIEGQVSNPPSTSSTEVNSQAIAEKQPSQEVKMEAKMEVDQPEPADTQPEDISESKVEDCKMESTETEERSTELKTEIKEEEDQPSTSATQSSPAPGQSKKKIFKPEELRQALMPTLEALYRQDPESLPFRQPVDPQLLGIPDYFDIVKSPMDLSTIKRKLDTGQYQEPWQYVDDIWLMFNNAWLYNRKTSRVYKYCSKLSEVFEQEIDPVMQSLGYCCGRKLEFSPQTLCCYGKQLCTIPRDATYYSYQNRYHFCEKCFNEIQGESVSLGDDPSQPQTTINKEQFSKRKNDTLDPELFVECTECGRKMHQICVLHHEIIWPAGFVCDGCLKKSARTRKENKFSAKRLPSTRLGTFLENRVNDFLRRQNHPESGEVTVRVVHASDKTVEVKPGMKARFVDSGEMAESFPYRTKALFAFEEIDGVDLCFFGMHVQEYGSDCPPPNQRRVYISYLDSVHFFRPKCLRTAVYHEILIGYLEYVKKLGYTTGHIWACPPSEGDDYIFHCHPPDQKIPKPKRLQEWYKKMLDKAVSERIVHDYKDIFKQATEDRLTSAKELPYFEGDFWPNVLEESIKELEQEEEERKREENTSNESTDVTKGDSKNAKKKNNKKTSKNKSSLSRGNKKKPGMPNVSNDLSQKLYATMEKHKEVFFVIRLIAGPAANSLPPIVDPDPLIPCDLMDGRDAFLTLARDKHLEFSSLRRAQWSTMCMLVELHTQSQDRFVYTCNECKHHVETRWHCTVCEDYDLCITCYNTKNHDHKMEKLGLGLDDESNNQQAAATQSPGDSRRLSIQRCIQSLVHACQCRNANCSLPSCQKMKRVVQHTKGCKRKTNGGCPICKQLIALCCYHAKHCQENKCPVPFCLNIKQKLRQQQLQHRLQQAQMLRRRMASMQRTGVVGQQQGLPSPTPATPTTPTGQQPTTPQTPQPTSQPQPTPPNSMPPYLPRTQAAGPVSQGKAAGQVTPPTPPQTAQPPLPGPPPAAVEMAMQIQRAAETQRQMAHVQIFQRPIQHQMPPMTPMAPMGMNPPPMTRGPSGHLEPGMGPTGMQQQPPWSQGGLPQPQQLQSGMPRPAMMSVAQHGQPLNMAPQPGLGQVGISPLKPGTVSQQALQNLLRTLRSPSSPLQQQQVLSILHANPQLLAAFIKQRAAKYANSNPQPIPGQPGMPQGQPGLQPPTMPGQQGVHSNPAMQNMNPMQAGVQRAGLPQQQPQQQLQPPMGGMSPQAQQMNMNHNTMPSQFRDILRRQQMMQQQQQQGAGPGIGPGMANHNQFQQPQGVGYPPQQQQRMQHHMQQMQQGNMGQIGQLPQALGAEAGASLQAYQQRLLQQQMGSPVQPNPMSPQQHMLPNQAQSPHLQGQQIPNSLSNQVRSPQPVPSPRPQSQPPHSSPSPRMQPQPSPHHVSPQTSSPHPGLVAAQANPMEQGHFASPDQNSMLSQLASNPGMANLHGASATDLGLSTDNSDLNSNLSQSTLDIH
Protein cereblon/Histone acetyltransferase p300 (Homo sapiens), sequence (Q96SW2 whole entry partner): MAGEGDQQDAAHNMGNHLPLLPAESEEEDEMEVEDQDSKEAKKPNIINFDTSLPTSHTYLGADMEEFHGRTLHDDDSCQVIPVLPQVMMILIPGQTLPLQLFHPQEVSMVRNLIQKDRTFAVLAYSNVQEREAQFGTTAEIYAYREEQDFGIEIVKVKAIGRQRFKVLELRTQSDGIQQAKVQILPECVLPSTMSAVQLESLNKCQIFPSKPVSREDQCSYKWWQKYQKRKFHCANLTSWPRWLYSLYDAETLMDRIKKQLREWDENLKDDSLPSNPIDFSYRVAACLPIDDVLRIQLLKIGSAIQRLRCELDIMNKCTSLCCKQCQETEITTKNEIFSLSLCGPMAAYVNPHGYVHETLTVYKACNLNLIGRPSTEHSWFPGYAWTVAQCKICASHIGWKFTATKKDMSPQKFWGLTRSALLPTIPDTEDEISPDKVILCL

Row | Activity [1] | IC50 (LNCaP) | Compound
1 | > 80% | 0.7 nM | CC(=O)N1CCc2c(c(N3CCCc4cc(-c5cnn(C)c5)c(C(F)F)cc43)nn2C2CCN(C(=O)CCCCCCCNc3cccc4c3C(=O)N(C3CCC(=O)NC3=O)C4=O)CC2)C1 (centres undefined)
2 | > 80% | 0.1 nM | CC(=O)N1CCc2c(c(N3CCCc4cc(-c5cnn(C)c5)c(C(F)F)cc43)nn2C2CCN(CCN3CCC(CCc4cccc5c4n(C)c(=O)n5C4CCC(=O)NC4=O)CC3)CC2)C1 (centres undefined)
3 | > 80% | 0.1 nM | CC(=O)N1CCc2c(c(N3CCCc4cc(-c5cnn(C)c5)c(C(F)F)cc43)nn2C2CCN(CCN3CCOC(CNc4cccc5c4C(=O)N(C4CCC(=O)NC4=O)C5=O)C3)CC2)C1 (centres undefined)
4 | > 80% | 0.9 nM | CNC(=O)N1CCc2c(c(N3CCCc4cc(-c5cnn(C)c5)c(C(F)F)cc43)nn2C2CCN(C(=O)CCCCCn3c(=O)n(C4CCC(=O)NC4=O)c4ccccc43)CC2)C1 (centres undefined)
5 | < 20% | 33.1 nM | CC(=O)N1CCc2c(c(N3CCCc4cc(-c5cnn(C)c5)c(C(F)F)cc43)nn2C2CCN(C(=O)CN3CCC(CCc4cccc5c4n(C)c(=O)n5C4CCC(=O)NC4=O)CC3)CC2)C1 (centres undefined)
6 | > 80% | 0.8 nM | CNC(=O)N1CCc2c(c(N3CCCc4cc(-c5cnn(C)c5)c(C(F)F)cc43)nn2C2CCN(C(=O)CCCCCCCNc3cccc4c3C(=O)N(C3CCC(=O)NC3=O)C4=O)CC2)C1 (centres undefined)
7 | > 80% | 0.3 nM | CC(=O)N1CCc2c(c(N3CCCc4cc(-c5cnn(C)c5)c(C(F)F)cc43)nn2C2CCN(C(=O)CCCN3CCN(Cc4ccc5c(c4)n(C)c(=O)n5C4CCC(=O)NC4=O)CC3)CC2)C1 (centres undefined)
8 | > 80% | 0.4 nM | CNC(=O)N1CCc2c(c(N3CCCc4cc(-c5cnn(C)c5)c(C(F)F)cc43)nn2C2CCN(C(=O)CCCCCNc3cccc4c3C(=O)N(C3CCC(=O)NC3=O)C4=O)CC2)C1 (centres undefined)
9 | < 50% | 44.5 nM | CC(=O)N1CCc2c(c(N3CCCc4cc(-c5cnn(C)c5)c(C(F)F)cc43)nn2C2CCN(C(=O)CCCCCNc3cccc4c3C(=O)N(C3CCC(=O)NC3=O)C4=O)CC2)C1 (centres undefined)
10 | > 80% | 0.3 nM | CC(=O)N1CCc2c(c(N3CCCc4cc(-c5cnn(C)c5)c(C(F)F)cc43)nn2C2CCN(CCN3CCC(CCc4ccc5c(c4)n(C)c(=O)n5C4CCC(=O)NC4=O)CC3)CC2)C1 (centres undefined)
11 | > 80% | 0.8 nM | CC(=O)N1CCc2c(c(N3CCCc4cc(-c5cnn(C)c5)c(C(F)F)cc43)nn2C2CCN(CCCC3CCN(c4cccc5c4C(=O)N(C4CCC(=O)NC4=O)C5=O)CC3)CC2)C1 (centres undefined)
12 | > 80% | 0.1 nM | CC(=O)N1CCc2c(c(N3CCCc4cc(-c5cnn(C)c5)c(C(F)F)cc43)nn2C2CCN(CCN3CCN(C#Cc4ccc5c(c4)n(C)c(=O)n5C4CCC(=O)NC4=O)CC3)CC2)C1 (centres undefined)
